Assays:
[1] = test system: proliferation induced by FGF-2; experiment: Inhibition of the biological activity of FGF-2 (FGF-2-induced cell proliferation, cell count); type: cell-based; conditions: 20 000 cells, 10 ng/ml FGF-2, DMEM 1% FCS, counted on day 6; read-out: I50, inhibition of cell proliferation
Procedure: The inhibition of the biological activity of FGF-2 (Table 3) is measured in the following manner: 20 000 cells are incubated with 10 ng/ml of FGF-2 in DMEM medium containing 1% fetal calf serum (FCS) in dishes 3.5 cm in diameter in the presence or in the absence of peptide. The cells are counted on the 6 day using a Coulter counter. The experiments are carried out in duplicate. The I50 is the concentration which inhibits the proliferation induced by FGF-2 by 50%.
(§1) A more detailed description of these measurements of I50 may be found in Jouan et al. and in Perollet et al. cited above.

VEGF receptors = experiment: Inhibition of binding of 125I-VEGF to surface receptors on endothelial cells; conditions: 125I-VEGF 10 ng/ml, 2 h at 4° C., read-out: I50, inhibition of the binding of VEGF to the high-affinity receptors
Procedure: The inhibition of the binding of VEGF to the surface receptors (Table 1) is measured in the following manner. VEGF is radiolabeled with ^125I-Na, and 10 ng/ml are incubated with endothelial cells for 2 h at 4° C. The radioactivity bound to the receptors is then determined. The specific binding is estimated by subtracting the nonspecific binding from the total binding (in the presence of a 100-fold excess of cold ligand relative to the hot ligand). The I50 is the concentration which inhibits specific binding by 50%.
as §1

[2] = test system: FGF-2 high-affinity receptors; experiment: Inhibition of binding of 125I-FGF-2 to high-affinity receptors on endothelial cells; conditions: 125I-FGF-2 10 ng/ml, 2 h at 4° C., read-out: I50, inhibition of the binding of FGF-2 to the high-affinity receptors
Procedure: (§2) The inhibition of the binding of FGF-2 to high-affinity receptors (Table 1) is measured in the following manner. FGF-2 is radiolabeled with ^125I-Na, and 10 ng/ml are incubated with endothelial cells for 2 h at 4° C. The radioactivity bound to high-affinity receptors is then determined. The specific binding is estimated by subtracting the nonspecific binding from the total binding (in the presence of a 100-fold excess of cold ligand relative to the hot ligand). The I50 is the concentration which inhibits specific binding by 50%.
as §1

proteoglycans = experiment: Inhibition of binding of 125I-FGF-2 to proteoglycans on endothelial cells; conditions: 125I-FGF-2 10 ng/ml, 2 h at 4° C., read-out: I50, inhibition of the binding of FGF-2 to proteoglycans
Procedure: as §2, with “to the proteoglycans” for “to high-affinity receptors”, “(Table 2)” for “(Table 1)”, “cold […]” for “cold ligand”
as §1

angiogenesis = experiment: Inhibitory activity tests of the fusion peptide (method not described); conditions: test not specified

| IC50 (VEGF receptors) [nM] | IC50 [2] [nM] | IC50 (proteoglycans) [nM] | Substance | IC50 [1] [nM] | Inhibitory activity compared with native PF-4 or fragment 47-70 (angiogenesis) |
| --- | --- | --- | --- | --- | --- |
| 1500 | 1500 | 3500 | Peptide 47-70 DLQ: nonmutated PF-4 fragment 47-70, control peptide used as comparative example (NGRKICLDLQAPLYKKIIKKLLES; Platelet factor 4; UniProt P02776 78-101, looked up, fragment) [reference compound] | 2800 |  |
| 300 | 300 | 600 | Peptide 47-70 DLR: PF-4 fragment 47-70 with glutamine in position 56 replaced by arginine (SEQ. ID. No:3) (NGRKICLDLRAPLYKKIIKKLLES; SEQ ID NO. 3 is the 47-70 fragment of mutated PF-4 SEQ ID. NO. 2) | 400 |  |
|  |  |  | fusion peptide 17-34/47-70: fusion peptide 17-34/47-70 derived from PF-4; the mutated form is SEQ. ID. No:4 (SQVRPRHITSLEVIKAGPNGRKICLDLRAPLYKKIIKKLLES; SEQ ID NO. 4 is the 17-34/47-70 fragment of mutated PF-4 SEQ. ID NO. 2.) [fusion peptide 17-34/47-70 derived from PF-4; ID; No:4] |  | inhibitory activity greater than that of native PF-4 or of fragment 47-70 |

— US20040086999A1, “Mutated-pf-4, its fragments and mutated fusion peptides, their analogues, corresponding dna, cdna and mrna sequences and their use for inhibiting angiognesis” (priority 2000, published 2004)
